Results reported in the NIST ThermoML archive (doi:10.1016/j.fluid.2018.05.028).

Test: xn = mol fraction of the nth substance listed
Details: 101 kPa, Liquid; for speed of sound: Single path-length method; for mass density: Vibrating tube method; for viscosity: Concentric cylinders viscometry

CCCCCCCCCCCCCCCC [hexadecane] + CCCO
Details | mass density, 318.15 K [kg/m3] | mass density, 323.15 K [kg/m3] | mass density, 328.15 K [kg/m3] | speed of sound, 318.15 K [m/s] | speed of sound, 323.15 K [m/s] | speed of sound, 328.15 K [m/s] | viscosity, 323.15 K [mPa·s] | viscosity, 328.15 K [mPa·s] | viscosity, 333.15 K [mPa·s]
x2 = 0 | 756.05 | 752.61 | 749.18 | – | 1247.1 | 1229.3 | 1.823 | 1.671 | 1.537
x2 = 0.1 | 755.74 | 752.19 | 748.64 | – | 1237.9 | 1220 | 1.708 | 1.565 | 1.438
x2 = 0.2 | 756.07 | 752.45 | 748.83 | – | 1230.5 | 1212.4 | 1.639 | 1.499 | 1.375
x2 = 0.3 | 756.67 | 753 | 749.32 | – | 1222.9 | 1204.7 | 1.587 | 1.452 | 1.331
x2 = 0.4 | 757.58 | 753.84 | 750.09 | – | 1214.7 | 1196.5 | 1.537 | 1.403 | 1.284
x2 = 0.5 | 758.84 | 755.05 | 751.23 | 1224 | 1205.6 | 1187.4 | 1.484 | 1.352 | 1.237
x2 = 0.6 | 760.62 | 756.76 | 752.86 | 1213.3 | 1195.1 | 1176.8 | 1.432 | 1.303 | 1.19
x2 = 0.7 | 763.14 | 759.22 | 755.25 | 1201.1 | 1182.9 | 1164.8 | 1.375 | 1.248 | –
x2 = 0.8 | 766.85 | 762.85 | 758.8 | 1185.1 | 1167.2 | 1149.4 | 1.308 | 1.186 | –
x2 = 0.9 | 772.59 | 768.51 | 764.37 | 1164.4 | 1147 | 1129.5 | 1.223 | 1.106 | –
